Source: ChEMBL document CHEMBL4739716, “Gpr139 receptor modulators” (2020)

Experiments:
[1] = target: T1, Probable G-protein coupled receptor 139 (Rattus norvegicus) (UniProt P0C0W8); experiment: Agonist activity at rat GPR139 expressed in CHO-K1 cells assessed as increase in calcium flux by calcium 5 dye based FLIPR assay relative to JNJ63533054; format: cell-based
T1 sequence (whole entry): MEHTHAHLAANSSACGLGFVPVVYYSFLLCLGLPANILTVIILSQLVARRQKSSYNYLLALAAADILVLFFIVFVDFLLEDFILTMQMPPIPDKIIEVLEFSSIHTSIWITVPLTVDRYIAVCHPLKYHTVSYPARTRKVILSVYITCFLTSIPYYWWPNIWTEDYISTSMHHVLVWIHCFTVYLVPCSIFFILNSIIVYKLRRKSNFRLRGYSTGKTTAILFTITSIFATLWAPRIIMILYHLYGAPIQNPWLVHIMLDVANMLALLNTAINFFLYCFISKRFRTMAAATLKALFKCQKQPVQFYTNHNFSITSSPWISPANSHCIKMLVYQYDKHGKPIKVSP

[2] = target: T2, Probable G-protein coupled receptor 139 (Homo sapiens, UniProt Q6DWJ6); experiment: Agonist activity at human GPR139 expressed in CHO-K1 cells assessed as increase in calcium flux by calcium 5 dye based FLIPR assay; format: functional, cell-based
T2 sequence (Q6DWJ6 whole entry): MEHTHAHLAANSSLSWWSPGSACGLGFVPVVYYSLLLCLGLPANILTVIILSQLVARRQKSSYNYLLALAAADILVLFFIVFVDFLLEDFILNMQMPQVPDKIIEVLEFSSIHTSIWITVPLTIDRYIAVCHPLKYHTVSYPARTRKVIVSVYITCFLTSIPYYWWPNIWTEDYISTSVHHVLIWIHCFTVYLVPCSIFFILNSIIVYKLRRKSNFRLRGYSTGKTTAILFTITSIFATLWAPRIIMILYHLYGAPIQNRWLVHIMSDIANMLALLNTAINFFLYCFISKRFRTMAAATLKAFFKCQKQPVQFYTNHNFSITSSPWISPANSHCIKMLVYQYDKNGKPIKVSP

[3] = target: T3, Probable G-protein coupled receptor 139 (Homo sapiens) (UniProt Q6DWJ6); experiment: Agonist activity at human GPR139 expressed in CHO-K1 cells assessed as increase in calcium flux by calcium 5 dye based FLIPR assay relative to JNJ63533054; format: functional, cell-based
T3 sequence (whole entry): T2 sequence (Q6DWJ6 whole entry)

[4] = target: T4, Probable G-protein coupled receptor 139 (Rattus norvegicus, UniProt P0C0W8); experiment: Agonist activity at rat GPR139 expressed in CHO-K1 cells assessed as increase in calcium flux by calcium 5 dye based FLIPR assay; format: cell-based
T4 sequence (P0C0W8 whole entry): T1 sequence (whole entry)

Compound | Emax [1] [%] | EC50 [2] [nM] | Emax ([3]; filed as agonist) [%] | EC50 ([4]; cho-k1) [nM] | Emax ([1]; filed as agonist) [%] | EC50 ([2]; cho-k1) [nM] | EC50 [4] [nM] | Emax [3] [%]
C[C@H](NC(=O)Cn1nc2cccc(N3CC(O)C3)n2c1=O)c1ccc(OC(F)(F)F)cc1 | 25 | < 1 | 50 | 1 | – | – | – | –
Cc1ccc([C@H](C)NC(=O)Cn2nc3cnc(C)cn3c2=O)cc1 | – | – | > 80 | 1 | 50 | 1 | – | –
Cc1cc(C)n2c(=O)n(CC(=O)N[C@@H](C)c3ccc(Cl)cc3)nc2n1 | < 25 | – | 50 | – | – | 1 | ≥ 100 | –
C[C@H](NC(=O)Cn1nc2ccc(N3CCCCC3)nn2c1=O)c1ccc(OC(F)(F)F)cc1 | < 25 | – | – | – | – | 10 | ≥ 100 | 25
C[C@H](NC(=O)Cn1nc2ccccn2c1=O)c1ccc(OC(F)(F)F)cc1 | 25 | – | > 80 | 1 | – | 1 | – | –
C[C@H](NC(=O)Cn1nc2ncccn2c1=O)c1ccc(Cl)cc1 | 25 | – | > 80 | – | – | 10 | ≥ 100 | –
Cc1cc2nn(CC(=O)N[C@@H](C)c3ccc(Cl)cc3)c(=O)n2c(C)n1 | < 25 | < 1 | > 80 | – | – | – | ≥ 100 | –
C[C@H](NC(=O)Cn1nc2ccccn2c1=O)c1ccc(OC(F)F)cc1 | 25 | – | > 80 | 10 | – | 1 | – | –
Cc1ccc([C@H](C)NC(=O)Cn2nc3ncccn3c2=O)cc1 | 25 | – | > 80 | – | – | 10 | ≥ 100 | –
Cc1nccn2c(=O)n(CC(=O)N[C@@H](C)c3ccc(OC(F)(F)F)cc3)nc12 | – | < 1 | > 80 | 1 | > 80 | – | – | –
CC1COCCN1c1cccc2nn(CC(=O)N[C@@H](C)c3ccc(Cl)c(F)c3)c(=O)n12 (some centres not stated) | – | < 1 | > 80 | 1 | > 80 | – | – | –
CC(C)Oc1ccc([C@H](C)NC(=O)Cn2nc3ccccn3c2=O)cc1 | 25 | – | 50 | – | – | 10 | ≥ 100 | –
Cc1cc(C)n2c(=O)n(CC(=O)N[C@@H](C)c3ccc(Cl)c(F)c3)nc2n1 | – | < 1 | > 80 | 1 | 50 | – | – | –
C[C@H](NC(=O)Cn1nc2cccnn2c1=O)c1ccc(OC(F)(F)F)cc1 | – | – | > 80 | 10 | 50 | 1 | – | –
Cc1ccc([C@H](C)NC(=O)Cn2nc3cnccn3c2=O)cc1 | – | – | > 80 | – | 50 | 10 | ≥ 100 | –
C[C@@H](NC(=O)Cn1nc2ccccn2c1=O)c1ccc(OC(F)F)cc1 | – | ≥ 100 | 50 | – | – | – | – | –
C[C@H](NC(=O)Cn1nc2c(OC3CNC3)nccn2c1=O)c1ccc(Cl)c(F)c1 | 25 | ≥ 100 | 50 | – | – | – | ≥ 100 | –
Cc1ccc([C@H](C)NC(=O)Cn2nc3cc(C)nc(C)n3c2=O)cc1 | – | – | > 80 | – | – | 1 | – | –
Cc1ccc([C@H](C)NC(=O)Cn2nc3ccc(Br)cn3c2=O)cc1 | – | – | > 80 | – | 50 | 1 | < 1 | –
C[C@H](NC(=O)Cn1nc2ncccn2c1=O)c1ccc(OC(F)F)c(F)c1 | 25 | – | > 80 | – | – | 10 | ≥ 100 | –
C[C@H](NC(=O)Cn1nc2c(NC3COC3)nccn2c1=O)c1ccc(Cl)c(F)c1 | – | – | > 80 | 1 | 50 | 1 | – | –

Compound | Emax [1] [%] | EC50 [2] [nM] | Emax ([3]; filed as agonist) [%] | EC50 ([4]; cho-k1) [nM] | Emax ([1]; filed as agonist) [%] | EC50 ([2]; cho-k1) [nM] | EC50 [4] [nM] | Emax [3] [%]
Cc1cn2c(=O)n(CC(=O)N[C@@H](C)c3ccc(OC(F)(F)F)cc3)nc2cn1 | 25 | – | > 80 | – | – | 1 | ≥ 100 | –
C[C@H](NC(=O)Cn1nc2ncc(F)cn2c1=O)c1ccc(Cl)cc1 | 25 | – | > 80 | – | – | 1 | ≥ 100 | –
Cc1ccc([C@H](C)NC(=O)Cn2nc3ccncn3c2=O)cc1 | – | – | > 80 | – | – | 1 | – | –
C[C@H](NC(=O)Cn1nc2ncccn2c1=O)c1ccc(OC(F)(F)F)cc1 | < 25 | – | > 80 | – | – | 10 | ≥ 100 | –
Cc1ccc([C@H](C)NC(=O)Cn2nc3c(Cl)cccn3c2=O)cc1 | – | – | > 80 | – | 50 | 1 | < 1 | –
C[C@H](NC(=O)Cn1nc2ncccn2c1=O)c1ccc(Cl)c(Cl)c1 | – | – | > 80 | 10 | 50 | 1 | – | –
C[C@H](NC(=O)Cn1nc2c(I)ccnn2c1=O)c1ccc(Cl)c(F)c1 | – | < 1 | > 80 | 1 | > 80 | – | – | –
C[C@H](NC(=O)Cn1nc2ccc(Cl)nn2c1=O)c1ccc(Cl)c(F)c1 | – | < 1 | > 80 | – | > 80 | – | < 1 | –
O=C(Cn1nc2ccccn2c1=O)NC(c1ccc(Cl)cc1)C1CC1 (configuration not stated) | – | – | > 80 | – | – | 10 | – | –
Cc1ccn2c(=O)n(CC(=O)N[C@@H](C)c3ccc(OC(F)(F)F)cc3)nc2n1 | < 25 | – | 50 | – | – | 1 | ≥ 100 | –
C[C@H](NC(=O)Cn1nc2ncc(F)cn2c1=O)c1ccc(Cl)c(F)c1 | – | – | > 80 | 1 | > 80 | 1 | – | –
C[C@H](NC(=O)Cn1nc2cccc(N3CCOCC3)n2c1=O)c1ccc(Cl)c(F)c1 | – | < 1 | > 80 | 1 | > 80 | – | – | –
C[C@H](NC(=O)Cn1nc2ccccn2c1=O)c1cncc(F)c1 | – | ≥ 100 | 50 | – | – | – | – | –
Cc1ccnc2nn(CC(=O)N[C@@H](C)c3ccc(OC(F)(F)F)cc3)c(=O)n12 | < 25 | – | 50 | – | – | 1 | ≥ 100 | –
Cc1ccc([C@H](C)NC(=O)Cn2nc3c(NC(=O)OC(C)(C)C)cccn3c2=O)cc1 | – | – | 50 | – | – | 1 | – | –
Cc1ccc([C@@H](C)NC(=O)Cn2nc3ccccn3c2=O)cc1 | – | ≥ 100 | 50 | – | – | – | – | –
Cc1ccc([C@H](C)NC(=O)C(C)n2nc3ccccn3c2=O)cc1 (stereo in doubt; form 1) [listing 1 of 2 here] | – | – | – | 1 | – | 1 | – | –
CC(NC(=O)Cn1nc2ccccn2c1=O)c1ccc(OC(F)F)cc1 (stereo in doubt) | – | – | > 80 | – | – | 10 | – | –
Cc1ccc([C@H](C)NC(=O)C(C)n2nc3ccccn3c2=O)cc1 (stereo in doubt; form 1) [listing 2 of 2 here] | – | – | > 80 | – | 50 | – | – | –
Cc1ccc([C@H](C)NC(=O)Cn2nc3cccc(Br)n3c2=O)cc1 | – | – | > 80 | – | – | 1 | – | –
